Experimental data reported in patent US20070003531A1, “Methods for improving immunotherapy by enhancing survival of antigen-specific cytotoxic T lymphocytes” (University of Connecticut, priority 2005, published 2007).
“Also recorded” adds a separate entry of the source.

Legend:
[1] = system: MART-127-35 epitope specific CTLs; experiment: IFN-γ response assay (ELISA); assay type: cell-based, human
Protocol: IFN-γ response assay for the effector cells has been described previously. Briefly, the effector cells were co-cultured with the peptide pulsed (1 μg/ml) T2 cells. After 4-16 h, culture supernatants were harvested and IFN-γ was measured by ELISA as per manufacturer's protocol (R & D Systems, MN).

Mart-1 primary CTLs = experiment: Mitochondrial transmembrane potential (DiOC6 staining); assay type: cell-based, human; details: induced by re-stimulation with cognate peptide; data not shown
Protocol: FIG. 12. Effect of antigen specific secondary stimulation on mitochondrial transmembrane membrane potential (Δψm), pro- and anti-apoptotic protein and expression of cell surface molecules. (A) Differential effect on membrane polarization in Mart-1 primary CTLs (top panel) vs. Jurkat T cells (bottom panel). CTLs were incubated with T2 cells either alone or loaded with peptide. After overnight secondary exposure cells were stained with Mart-1 tetramer/CD8 and DiOC6. Histogram represents the fluorescence of DiOC6 in the gated antigen specific tetramer^+ population (top panel). Jurkat T cells were also analyzed for modulation of membrane potential after TCR-driven stimulation (bottom panel). Values represent the mean±SD of fluorescence intensity triplicates from one out of three separate experiment. *p<0.001 (One Way ANOVA). […] (C) Expression of different cell surface receptors for survival or death signal in antigen specific population upon secondary stimulation. Values on left upper corner represent the geometric mean of the fluorescence intensity for that particular marker when stimulated with T2/MAGE-3271-279 while that on right upper corner represent the geometric mean of the fluorescence intensity when stimulated with T2/MART-127-35.

For `O=C1c2ccccc2-c2n[nH]c3cccc1c23` [SP600125, anthra[1,9-cd]pyrazol-6(2H)-one], the “IFN-γ synthesis by rescued CTLs” value ([1]; five days continued culture in IL-15 without the inhibitor) was “regained”, the “IFN-γ response by CTLs in presence of inhibitor” value ([1]; peptide pulsed T2 cells, inhibitor 25 μM) was “inhibited; also recorded: negatively regulates” and the “level of hyper polarization of mitochondrial transmembrane potential” value (Mart-1 primary CTLs) was “decreased”.
